In patent publication US20080194524A1, “Compounds For the Inhibition of Undesired Cell Proliferation and Use Thereof” (JERINI AG, priority 2003, published 2008):
Where a SMILES comes first, the peptide text is derived from it. [ ]: non-standard residue; d: D form. The star is where a group is joined. 2Nal = N[C@@H](Cc1ccc2ccccc2c1)C(=O)O; pGlu = O=C1CC[C@@H](C(=O)O)N1; Pip = O=C(O)[C@@H]1CCCCN1; CH2PO3H2 = O=P(O)(O)C*

target: hPin1 (Protein interacting with NIMA (-kinase)) (Homo sapiens, UniProt Q13526); test: protease-coupled PPIase assay, hPin1; assay type: biochemical; details: not given
Sequence (Q13526 whole entry): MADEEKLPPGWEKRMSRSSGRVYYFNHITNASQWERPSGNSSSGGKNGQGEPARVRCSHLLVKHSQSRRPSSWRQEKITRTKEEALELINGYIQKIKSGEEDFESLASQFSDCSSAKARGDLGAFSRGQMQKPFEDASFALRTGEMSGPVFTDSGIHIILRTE

Row | SMILES | IC50 [nM]
1 | NC(=O)[C@H](Cc1ccc2ccccc2c1)NC(=O)[C@@H]1CCCCN1C(=O)[C@H](CSCP(=O)(O)O)NC(=O)[C@@H]1CCC(=O)N1 [Compound 39, {3-[2-(1-Carbamoyl-2-naphthalen-2-yl-ethylcarbamoyl)-piperidin-1-yl]-3-oxo-2-[(5-oxo-pyrrolidine-2-carbonyl)-amino]-propylsulfanyl-methyl}-phosphonic acid] ([pGlu]C(CH2PO3H2)[Pip][2Nal]-NH2) | < 1000
2 | NC(=O)[C@H](Cc1ccc2ccccc2c1)NC(=O)[C@@H]1CCCCN1C(=O)[C@H](CSCP(=O)(O)O)NC(=O)Oc1ccccc1 [Compound 46, {3-[2-(1-Carbamoyl-2-naphthalen-2-yl-ethylcarbamoyl)-piperidin-1-yl]3-oxo-2-phenoxycarbonylamino-propylsulfanylmethyl}-phosphonicacid] | < 1000

same assay, conditions: hPin1 6 nM; substrate Ac-Ala-Ala-Ser(PO3H2)-Pro-Arg-pNA, trypsin; 35 mM HEPES pH 7.8, 6° C.; read-out: Specificity of the inhibition with rotamases, Target T-1 (IC50 class)

Row | IC50 [nM] | SMILES
3 | < 1000 | NC(=O)[C@H](Cc1ccc2ccccc2c1)NC(=O)[C@@H]1CCCCN1C(=O)[C@H](CSCP(=O)(O)O)NC(=O)c1ccccc1 [Compound 20, {2-Benzoylamino-3-[2-(1-carbamoyl-2-naphthalen-2-yl-ethylcarbamoyl)-piperidin-1-yl]-3-oxo-propylsulfanylmethyl}-phosphonic acid]
4 | < 1000 | NC(=O)[C@H](Cc1ccc2ccccc2c1)NC(=O)[C@@H]1CCCCN1C(=O)[C@H](CSCP(=O)(O)O)NC(=O)Cc1ccccc1 [Compound 21, {3-[2-(1-Carbamoyl-2-naphthalen-2-yl-ethylcarbamoyl)-piperidin-1-yl]-3-oxo-2-phenylacetylamino-propylsulfanylmethyl}-phosphonicacid]
5 | < 1000 | NC(=O)[C@H](Cc1ccc2ccccc2c1)NC(=O)[C@@H]1CCCCN1C(=O)[C@H](CSCP(=O)(O)O)NC(=O)CCc1ccccc1 [Compound 22, [3-[2-(1-Carbamoyl-2-naphthalen-2-yl-ethylcarbamoyl)-piperidin-1-yl]-3-oxo-2-(3-phenyl-propionylamino)-propylsulfanylmethyl]-phosphonicacid]
6 | < 1000 | NC(=O)[C@H](Cc1ccc2ccccc2c1)NC(=O)[C@@H]1CCCCN1C(=O)[C@H](CSCP(=O)(O)O)NC(=O)CCCc1ccccc1 [Compound 23, [3-[2-(1-Carbamoyl-2-naphthalen-2-yl-ethylcarbamoyl)-piperidin-1-yl]-3-oxo-2-(4-phenyl-butyrylamino)-propylsulfanylmethyl]-phosphonicacid]
7 | < 1000 | NC(=O)[C@H](Cc1ccc2ccccc2c1)NC(=O)[C@@H]1CCCCN1C(=O)[C@H](CSCP(=O)(O)O)NC(=O)Cc1ccc(-c2ccccc2)cc1 [Compound 24, {2-(2-Biphenyl-4-yl-acetylamino)-3-[2-(1-carbamoyl-2-naphthalen-2-yl-ethylcarbamoyl)-piperidin-1-yl]-3-oxo-propylsulfanylmethyl}-phosphonic acid]
8 | < 1000 | CC(=O)N[C@@H](Cc1csc2ccccc12)C(=O)N[C@@H](CSCP(=O)(O)O)CN1CCCC[C@H]1C(=O)N[C@@H](Cc1ccc2ccccc2c1)C(N)=O [Compound 25, {2-(2-Acetylamino-3-benzo[b]thiophen-3-yl-propionylamino)-3-[2-(1-carbamoyl-2-naphthalen-2-yl-ethylcarbamoyl)-piperidin-1-yl]-propylsulfanylmethyl}-phosphonicacid]
9 | < 1000 | CC(=O)N[C@@H](Cc1csc2ccccc12)C(=O)N[C@@H](CSCP(=O)(O)O)C(=O)N(C)N(C)C(=O)N[C@@H](Cc1ccc2ccccc2c1)C(N)=O [Compound 26, Ac-Bta-Cys(CH2—P(O)(OH)2)-NMeazaAla-2Nal-NH2]
10 | < 1000 | CC(=O)N[C@@H](Cc1csc2ccccc12)C(=O)N[C@@H](CSCP(=O)(O)O)C(=O)N(C)NC(=O)N[C@@H](Cc1ccc2ccccc2c1)C(N)=O [Compound 27, Ac-Bta-Cys(CH2—P(O)(OH)2)-NMeazaGly-2Nal-NH2]
11 | < 1000 | NC(=O)[C@H](Cc1ccc2ccccc2c1)NC(=O)[C@@H]1CCCCN1C(=O)CSCP(=O)(O)O [Compound 28, {2-[2-(1-Carbamoyl-2-naphthalen-2-yl-ethylcarbamoyl)-piperidin-1-yl]-2-oxo-ethylsulfanylmethyl}-phosphonic acid]
12 | < 1000 | NC(=O)[C@H](Cc1ccc2ccccc2c1)NC(=O)[C@@H]1CCCCN1C(=O)CCSCP(=O)(O)O [Compound 29, {3-[2-(1-Carbamoyl-2-naphthalen-2-yl-ethylcarbamoyl)-piperidin-1-yl]-3-oxo-propylsulfanylmethyl}-phosphonic acid]
13 | 1000 to 10000 | CC(=O)N[C@@H](CSCP(=O)(O)O)C(=O)N1CCCC[C@H]1C(=O)N[C@@H](Cc1ccc2ccccc2c1)C(N)=O [Compound 30, {2-Acetylamino-3-[2-(1-carbamoyl-2-naphthalen-2-yl-ethylcarbamoyl)-piperidin-1-yl]-3-oxo-propylsulfanylmethyl}-phosphonic acid]
14 | < 1000 | NC(=O)[C@H](Cc1ccc2ccccc2c1)NC(=O)[C@@H]1CCCCN1C(=O)[C@H](CSCP(=O)(O)O)NC(=O)OCc1ccccc1 [Compound 31, {2-Benzyloxycarbonylamino-3-[2-(1-carbamoyl-2-naphthalen-2-yl-ethylcarbamoyl)-piperidin-1-yl]-3-oxo-propylsulfanylmethyl}-phosphonic acid]
15 | < 1000 | NC(=O)[C@H](Cc1ccc2ccccc2c1)NC(=O)[C@@H]1CCCCN1C(=O)[C@H](CSCP(=O)(O)O)NS(=O)(=O)Cc1ccccc1 [Compound 32, {3-[2-(1-Carbamoyl-2-naphthalen-2-yl-ethylcarbamoyl)-piperidin-1-yl]-3-oxo-2-phenylmethane-sulfonylaminopropylsulfanyl-methyl}-phosphonic acid]
16 | 1000 to 10000 | NC(=O)[C@H](Cc1ccc2ccccc2c1)NC(=O)[C@@H]1CCCCN1C(=O)[C@H](CSCP(=O)(O)O)NC(=O)C1(c2ccccc2)CCCC1 [Compound 33, {3-[2-(1-Carbamoyl-2-naphthalen-2-yl-ethylcarbamoyl)-piperidin-1-yl]-3-oxo-2-[(1-phenyl-cyclopentanecarbonyl)-amino]-propylsulfanylmethyl}-phosphonicacid]
17 | < 1000 | NC(=O)[C@H](Cc1ccc2ccccc2c1)NC(=O)[C@@H]1CCCCN1C(=O)[C@H](CSCP(=O)(O)O)NC(=O)Cc1ccccc1Cl [Compound 34, {3-[2-(1-Carbamoyl-2-naphthalen-2-yl-ethylcarbamoyl)-piperidin-1-yl]-2-[2-(2-chloro-phenyl)-acetylamino]-3-oxo-propylsulfanylmethyl}-phosphonicacid]
18 | < 1000 | NC(=O)[C@H](Cc1ccc2ccccc2c1)NC(=O)[C@@H]1CCCCN1C(=O)[C@H](CSCP(=O)(O)O)NC(=O)Cc1ccc(Cl)cc1 [Compound 35, {3-[2-(1-Carbamoyl-2-naphthalen-2-yl-ethylcarbamoyl)-piperidin-1-yl]-2-[2-(4-chloro-phenyl)-acetylamino]-3-oxo-propylsulfanylmethyl}-phosphonicacid]
19 | < 1000 | COc1ccc(CC(=O)N[C@@H](CSCP(=O)(O)O)C(=O)N2CCCC[C@H]2C(=O)N[C@@H](Cc2ccc3ccccc3c2)C(N)=O)cc1 [Compound 36, {3-[2-(1-Carbamoyl-2-naphthalen-2-yl-ethylcarbamoyl)-piperidin-1-yl]-2-[2-(4-methoxy-phenyl)-acetylamino]-3-oxo-propylsulfanylmethyl}-phosphonicacid]
20 | < 1000 | NC(=O)[C@H](Cc1ccc2ccccc2c1)NC(=O)[C@@H]1CCCCN1C(=O)[C@H](CSCP(=O)(O)O)NC(=O)CCC(=O)c1ccc(Cl)cc1 [Compound 37, {3-[2-(1-Carbamoyl-2-naphthalen-2-yl-ethylcarbamoyl)-piperidin-1-yl]-2-[4-(4-chloro-phenyl)-4-oxo-butyrylamino]-3-oxo-propylsulfanylmethyl}-phosphonicacid]
21 | < 1000 | COc1ccc(CCCC(=O)N[C@@H](CSCP(=O)(O)O)C(=O)N2CCCC[C@H]2C(=O)N[C@@H](Cc2ccc3ccccc3c2)C(N)=O)cc1 [Compound 38, {3-[2-(1-Carbamoyl-2-naphthalen-2-yl-ethylcarbamoyl)-piperidin-1-yl]-2-[4-(4-methoxy-phenyl)-butyrylamino]-3-oxo-propylsulfanylmethyl}-phosphonicacid]
22 | 1000 to 10000 | NC(=O)[C@H](Cc1ccc2ccccc2c1)NC(=O)[C@@H]1CCCCN1C(=O)[C@H](CSCP(=O)(O)O)NC(=O)c1cc2ccccc2o1 [Compound 40, {2-[(Benzofuran-2-carbonyl)-amino]-3-[2-(1-carbamoyl-2-naphthalen-2-yl-ethylcarbamoyl)-piperidin-1-yl]-3-oxo-propylsulfanylmethyl}-phosphonicacid]
23 | 1000 to 10000 | NC(=O)[C@H](Cc1ccc2ccccc2c1)NC(=O)[C@@H]1CCCCN1C(=O)[C@H](CSCP(=O)(O)O)NC(=O)CN1CCNCC1 [Compound 41, [3-[2-(1-Carbamoyl-2-naphthalen-2-yl-ethylcarbamoyl)-piperidin-1-yl]-3-oxo-2-(2-piperazin-1-yl-acetylamino)-propylsulfanyl-methyl]-phosphonic acid]
24 | 1000 to 10000 | COC(=O)N[C@@H](CSCP(=O)(O)O)C(=O)N1CCCC[C@H]1C(=O)N[C@@H](Cc1ccc2ccccc2c1)C(N)=O [Compound 45, {3-[2-(1-Carbamoyl-2-naphthalen-2-yl-ethylcarbamoyl)-piperidin-1-yl]-2-methoxycarbonylamino-3-oxo-propylsulfanylmethyl}-phosphonic acid]

Row | SMILES | IC50 [nM]
25 | CC(C)COC(=O)N[C@@H](CSCP(=O)(O)O)C(=O)N1CCCC[C@H]1C(=O)N[C@@H](Cc1ccc2ccccc2c1)C(N)=O [Compound 43, {3-[2-(1-Carbamoyl-2-naphthalen-2-yl-ethylcarbamoyl)-piperidin-1-yl]-2-isobutoxycarbonylamino-3-oxo-propylsulfanylmethyl}-phosphonic acid] | 1000 to 10000
26 | CCCCOC(=O)N[C@@H](CSCP(=O)(O)O)C(=O)N1CCCC[C@H]1C(=O)N[C@@H](Cc1ccc2ccccc2c1)C(N)=O [Compound 44, {2-Butoxycarbonylamino-3-[2-(1-carbamoyl-2-naphthalen-2-yl-ethylcarbamoyl)-piperidin-1-yl]-3-oxo-propylsulfanylmethyl}-phosphonic acid] | 1000 to 10000
